Results taken from article PMC3440242 (Peptides, 2012).
Where two headings read alike, the source gives them in different places.

Tests used:
[1] = test system: CHO cells
[2] = test system: CHO cells; remark: listed apart in the source
[3] = target: hY2-CHO receptor; details: read-out: Scatchard affinity / Kdiss, ref [37]; cited from earlier work
[4] = test system: hY2-CHO receptor; test: Depletion of hY2-CHO surface receptors by agonists; format: cell-based, human; details: exponential + linear model, four experiments
[5] = test system: G-protein nucleotide sites (Gi3 α subunit); format: cell-based
[6] = test system: Y4 receptor; test: Agonist binding to surface Y4 receptor in CHO monolayers after unmasking agent; format: cell-based; details: 30 μM digitonin pretreatment, 20 min at 37 °C; 50 pM [^125I] hPP
[7] = stated without reference; cited from earlier work
[8] = test system: guinea pig Y2 receptor; test: Unmasking of surface guinea pig Y2 receptor in adherent CHO cells; format: cell-based; details: 30 μM agent, 20 min at 37 °C, 50 pM [^125I] hPYY(3-36), at least three experiments
[9] = test system: CHO cells; test: Permeabilization of CHO cells; details: 20 min at 37 °C
[10] = test system: Y1 receptor; test: Agonist binding to surface Y1 receptor in CHO monolayers after unmasking agent; format: cell-based; details: 30 μM digitonin pretreatment, 20 min at 37 °C; 50 pM [^125I] hNPY
[11] = target: T1, Y2 receptor (Homo sapiens, UniProt P49146); details: read-out: ic50, [^125I] hPYY(3-36) binding to particulate Y2 receptor; cited from earlier work
T1 sequence (P49146 1-381): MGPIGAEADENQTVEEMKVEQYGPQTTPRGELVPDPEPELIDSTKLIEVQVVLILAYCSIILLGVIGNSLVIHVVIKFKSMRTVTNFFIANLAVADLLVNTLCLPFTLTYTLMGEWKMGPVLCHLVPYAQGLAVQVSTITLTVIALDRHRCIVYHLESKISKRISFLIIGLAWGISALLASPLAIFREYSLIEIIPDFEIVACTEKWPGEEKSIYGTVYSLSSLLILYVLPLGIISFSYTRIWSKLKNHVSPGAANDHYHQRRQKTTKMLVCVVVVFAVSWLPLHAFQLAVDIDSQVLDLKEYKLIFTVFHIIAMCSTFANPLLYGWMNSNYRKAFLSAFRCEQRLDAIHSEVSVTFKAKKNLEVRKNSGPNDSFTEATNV

[12] = test system: CHO cells; test: Cell detachment, protein loss and lysis of CHO cells
[13] = target: T1, Y2 receptor; test: Particulate Y2 agonist binding
[14] = target: G-protein nucleotide sites (Gi α subunits) (Cricetulus griseus, UniProt Q60397); test: ^35S-GTPγS binding to Y2-CHO particulates; details: Y2-CHO cells
Sequence of G-protein nucleotide sites (Gi α subunits) (Q60397 2-354): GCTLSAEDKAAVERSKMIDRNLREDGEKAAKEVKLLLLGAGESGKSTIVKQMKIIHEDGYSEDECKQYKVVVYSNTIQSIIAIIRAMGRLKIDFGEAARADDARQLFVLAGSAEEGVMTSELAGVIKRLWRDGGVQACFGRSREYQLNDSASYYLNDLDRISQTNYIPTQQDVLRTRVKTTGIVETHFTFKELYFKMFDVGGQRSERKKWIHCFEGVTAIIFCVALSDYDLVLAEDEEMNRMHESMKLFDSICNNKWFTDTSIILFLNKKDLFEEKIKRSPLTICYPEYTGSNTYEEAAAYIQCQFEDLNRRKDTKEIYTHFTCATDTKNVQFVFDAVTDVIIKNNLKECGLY

Q: For C[C@H](CCC(=O)O)[C@H]1CC[C@H]2[C@@H]3[C@H](O)C[C@@H]4C[C@H](O)CC[C@]4(C)[C@H]3C[C@H](O)[C@]12C [cholate], which “permeabilization of CHO cells (in words)” value [1] is on record?
A: The value was “did not permeabilize CHO cells at 100 μM”.

Q: What about the “concentration above which CHO cells and particulates are lysed” value [2] of the same compound?
A: Its value is “above 1 mM”.

Q: With “LRHYLNLLTRORY [AcLeu, human neuropeptide Y(24-36), acetyl-Leu(28, 31)]” as the compound, how does the Kd [3] read?
A: Its Kd is 0.0005 µM.

Q: What about the “% total depletion in component 1” value ([4]; + 30 μM PAO) of the same compound?
A: The value was 15.6 ± 3.9%.

Q: What about the “K1 (exponential component)” value ([4]; + 30 μM PAO) of the same compound?
A: The value was 3.0 ± 0.75 nM.

Q: What about the “K2 (linear component)” value ([4]; + 30 μM PAO) of the same compound?
A: The value was 243 ± 15 nM.

Q: And the “% total depletion in component 1” value ([4]; without PAO)?
A: The value was 32.8 ± 8.5 %.

Q: And the “K1 (exponential component)” value ([4]; without PAO)?
A: Its value is 6.2 ± 1.6 nM.

Q: What about the “K2 (linear component)” value ([4]; without PAO) of the same compound?
A: The value was 153 ± 17 nM.

Q: Which “^35S-GTPγS binding to Y2-CHO cells (in words)” value [5] does the source give for “pertussis toxin: toxin used at 1 ng/ml for 21 h” here?
A: The value was “highly sensitive to cell pretreatment with pertussis toxin”.

Q: Which “digitonin range in which ^35S-GTPγS binding saturates” value [5] does the source give for C[C@@H]1CC[C@@]2(OC1)O[C@H]1[C@@H](O)[C@H]3[C@@H]4CC[C@H]5C[C@@H](O[C@@H]6O[C@H](CO)[C@H](O[C@@H]7O[C@H](CO)[C@@H](O)[C@H](O[C@@H]8OC[C@@H](O)[C@H](O)[C@H]8O)[C@H]7O[C@@H]7O[C@H](CO)[C@H](O)[C@H](O[C@@H]8O[C@H](CO)[C@@H](O)[C@H](O)[C@H]8O)[C@H]7O)[C@H](O)[C@H]6O)[C@H](O)C[C@]5(C)[C@H]4CC[C@]3(C)[C@H]1[C@@H]2C [digitonin] here?
A: Its value is 3 to 30 µM.

Q: What about the “increase of ^35S-GTPγS binding to intact CHO cells” value [5] of the same compound?
A: Its value is 10-15 fold.

Q: And the “effect on Y4-CHO surface sites” value [6]?
A: Its value is “did not increase the Y1-CHO or Y4-CHO surface sites”.

Q: And the critical micellar concentration [7]?
A: Its critical micellar concentration is ≥ 100 µM.

Q: What about the “increase of labeling of adherent confluent Y2-CHO cells” value [8] of the same compound?
A: Its value is “about 4 fold”.

Q: What about the “concentration above which CHO cells and particulates are lysed” value [2] of the same compound?
A: The value was “above 1 mM”.

Q: What about the “concentration above which protein leakage is observed” value [2] of the same compound?
A: The value was “above 30 μM”.

Q: What about the “concentration at/above which cell detachment is found” value [2] of the same compound?
A: Its value is “about 50 μM”.

Q: And the “concentration at which permeabilization reached a plateau” value ([9]; judged by labeling by ^35S-GTPγS)?
A: Its value is 20 µM.

Q: What about the “effect on Y1-CHO surface sites” value [10] of the same compound?
A: The value was “did not increase the Y1-CHO or Y4-CHO surface sites”.

Q: For CCN1C(=O)C=CC1=O [NEM, N-Ethylmaleimide], which IC50 [11] is on record?
A: Its IC50 is 146 ± 14 µM.

Q: Which IC50 [11] does the source give for C[N+](C)(C)CCSS(C)(=O)=O [MTSET, 2-[trimethylammonium)ethyl] methanethiosulfonate] here?
A: Its IC50 is 264 ± 27 µM.

Q: With C[C@H](CCC(=O)NCCC[N+](C)(C)CCCS(=O)(=O)[O-])[C@H]1CC[C@H]2[C@@H]3[C@H](O)C[C@@H]4C[C@H](O)CC[C@]4(C)[C@H]3C[C@H](O)[C@]12C [CHAPS, 3-[(3-Cholamidopropyl)dimethylammonio]-1-propanesulfonate] as the compound, how does the “concentration above which CHO cells and particulates are lysed” value [12] read?
A: Its value is “above 1 mM”.

Q: Which “permeabilization of CHO cells (in words)” value [1] does the source give for “polyoxyethylene(20)sorbitan monooleate [Tween 80]” here?
A: The value was “did not permeabilize CHO cells at 100 μM”.

Q: With CCCCC[C@@H](O)[C@H]1C(=O)O[C@H](C)[C@@H](O)/C=C/C=C/C=C/C=C/C=C(\C)[C@@H](O)C[C@H](O)C[C@H](O)C[C@H](O)C[C@H](O)C[C@H](O)C[C@@H]1O [filipin III] as the compound, how does the “^35S-GTPγS binding to Y2-CHO cells (in words)” value [5] read?
A: Its value is “highly variable”.

Q: What about the “effect on particulate Y2 agonist binding (in words)” value [13] of the same compound?
A: Its value is “no loss of either particulate or surface Y2 sites”.

Q: What about the IC50 ([13]; read-out: ic50, agonist binding to Y2-CHO particulates) of the same compound?
A: The IC50 was ~100 µM.

Q: And the “concentration at which cell lysis starts” value [2]?
A: Its value is “about 10 μM”.

Q: And the “concentration at/above which cell detachment is found” value [2]?
A: The value was “above 15 μM”.

Q: What about the “loss of mainly cytosolic protein” value [2] of the same compound?
A: Its value is “about 40%”.

Q: What about the “concentration range inducing permeabilization” value ([9]; filipin III) of the same compound?
A: Its value is 0.6 to 3 µM.

Q: With Nc1nc2c(ncn2[C@@H]2O[C@H](COP(=O)(O)OP(=O)(O)OP(O)(O)=S)[C@@H](O)[C@H]2O)c(=O)[nH]1 [^35S-GTPγS, guanosine 5′-O-(3-thiotriphosphate] as the compound, how does the “total particulate nucleotide sites” value [14] read?
A: Its value is 32 ± 0.7 fmol/100,000 cells.
